This note sets out measurements from US6093714A, “Tricyclic benzazepine compounds” (priority 1995, dated 2000).

Counter-ions that a name gives are not always drawn. Like-named read-outs stand apart in the source and are kept apart here.

One assay has as its system intraperitoneal cells. The experiment in a line: Histamine release reaction inhibition test (rat intraperitoneal cells, DNP-As antigen). In kind it is cell-based, Wistar male rat. The conditions noted are these: 10^-5 to 10^-10 M test compound, DNP-As stimulated intraperitoneal cells, 10^5 cells/ml, read-out: IC50 (dose of the test compound required for inhibiting the histamine release reaction by 50%). How it is done:
Histamine release reaction inhibition test
(1) Preparation of antiserum
Rat anti-dinitrophenylated ascaris protein (hereinafter referred to as "DNP-As") serum was prepared according to the method established by Tada et al. (Tada, T. and Okumura, K., J. Immun. 106(4), 1971). Specifically, 1010 organisms of Bordetella pertussis and 1 mg of DNP-As were intramuscularly administered to the foot pad of the limbs of Brown norway male rats weighing 200 g, and, five days after the administration, 0.5 mg of DNP-As was intramuscularly administered to the back. Three days after that, blood was collected to prepare an antiserum. The titer of the antiserum was determined by using a 48-hr passive cutaneous anaphylaxis reaction using a rat and found to be 1:1000 to 1:2000.
(2) Induction of histamine release reaction and release reaction inhibitory activity
The above serum was diluted four times with physiological brine, and 1 ml of the diluted serum was intraperitoneally administered to a Wistar male rat. Two days after the administration, the abdominal cavity was washed with phosphate buffer, and intraperitoneal cells were collected. The cells were adjusted to 10^5 cells/ml and stimulated with 1 pg/ml DNP-As, and the amount of the histamine released on the supernatant was measured by the method established by Shore et al (Shore, P. A., Burkhalter, A. H. and Chon Jr. V. H. J. Pharm. Exp. Ther., 127 , 182-186 (1959)).
The amount of the released histamine treated with 10^-5 to 10^-10 M test compound was compared with that of non-treated group. The dose of the test compound required for inhibiting the histamine release reaction by 50% (IC50) was calculated based on the percentage inhibition. IC50 of sodium cromoglicate was used as a control.

The test system of assay [1] is allergic foot-pad edema reaction. The experiment in a line: Immediate and late phase allergic response inhibition test (allergic foot-pad edema reaction). The conditions noted are these: Rattus norvegicus, po, 20 mg/kg orally, 10 min before induction. It counts as in vivo, Wister male rats. Here is the method: Immediate and late phase allergic response inhibition test
Wister male rats weighing of 200 g were provided. 1010 organisms of Bordetella pertussis and 1 mg of dinitrophenylated ovalbumin (hereinafter abbreviated to "DNP-OA") were intramuscularly administered into the foot pad of the limbs of the rats except for the right hind leg. Further, ten days after the administration, 5 pg/site DNP-OA was subcutaneously administered to the right hind leg to induce allergic foot-pad edema reaction. The inhibitory activity of the test compounds was determined in such a manner that the volume of edema 30 min after the induction of the allergic reaction was regarded as an immediate phase allergic response and the volume of edema 8 hr after the induction of the allergic reaction was regarded as a late phase allergic response. Each test compound was dissolved or suspended in a 0.25% Tween 80 solution, and the solution or suspension was orally administered at a dose of 20 mg/kg 10 min before the induction of the allergic reaction.
Only the 0.25% Tween 80 solution was administered to the control group of rats not treated with any test compound, and 100 mg/kg sodium cromoglicate was subcutaneously or orally administered to the positive control group of rats.
The percentage inhibition of the allergic foot-pad edema reaction was determined by the following equation.
Percentage inhibition of allergic foot-pad edema reaction=(A-B)/A×100
wherein A: average edema volume for the non-treated control group of rats; and
B: average edema volume for the group of rats with the test compound administered.

Setting [2] is: 0.5 h, edema 30 min after induction, read-out: Inhibition (%) Immediate phase response.
[3] abbreviates: edema 8 hr after induction, read-out: Inhibition (%) Late phase response.

For `O=c1[nH]c2cc(/C=C/c3ccccn3)ccc2c(=O)c2[nH]nnc12` [Example 11, 4(5H),10-Dioxo-7-(2-(2-pyridyl)-(E)-ethenyl)-1H-1,2,3-triazolo[4,5-c][1]benzazepine trifluoroacetate], the IC50 (usually the concentration that gives 50% inhibition) in the assay on intraperitoneal cells is 1.8 nM.
Consider `Cc1cc2[nH]c(=O)c3nn[nH]c3c(=O)c2cc1O` [Example 28, 8-Hydroxy-7-methyl-4(5H),10-dioxo-1H-1,2,3-triazolo[4,5-c][1]benzazepine], for which the IC50 with intraperitoneal cells turned out to be 12 nM. The inhibition in vivo at 20 mg/kg in assay [1] (setting [2]) was found to be 51%; in assay [1] (setting [3]) it was 48%.
The matching figures for `Cc1ccc(C(=O)Oc2ccc3c(=O)c4[nH]nnc4c(=O)[nH]c3c2)cc1` [Example 17, 4(5H),10-Dioxo-7-(4-toluoyloxy)-1H-1,2,3-triazolo[4,5-c][1]benzazepine]: 4.1 nM, 44% and 24%.
For `COc1cc2c(=O)c3[nH]nnc3c(=O)[nH]c2c(OC)c1OC` [Example 30, 6,7,8-Trimethoxy-4(5H),10-dioxo-1H-1,2,3-triazolo[4,5-c][1]benzazepine], the IC50 with intraperitoneal cells came out at 8.7 nM. In addition, the inhibition in vivo at 20 mg/kg in assay [1] (setting [2]) was 58%; in assay [1] (setting [3]) it was 51%.
`COc1ccc(C(=O)COc2cc3c(=O)c4[nH]nnc4c(=O)[nH]c3cc2C)cc1` [Example 27, 8-(4-Methoxyphenacyloxy)-7-methyl-4(5H),10-dioxo-1H-1,2,3-triazolo[4,5-c][1]benzazepine]: the IC50 with intraperitoneal cells was 10 nM.
Consider `O=c1[nH]c2cc(OCCCN3CCC(Cc4ccccc4)CC3)ccc2c(=O)c2[nH]nnc12` [Example 14, 7-(3-(4-Benzylpiperidino)propoxy)-4(5H),10-dioxo-1H-1,2,3-triazolo[4,5-c][1]benzazepine trifluoroacetate], for which the IC50 in the assay on intraperitoneal cells is 11 nM. Besides, the inhibition in vivo at 20 mg/kg in assay [1] (setting [2]) worked out at 32%; in assay [1] (setting [3]), 15%.
For `O=C(COc1ccc2c(=O)c3[nH]nnc3c(=O)[nH]c2c1)NCc1ccccn1` [Example 16, 4(5H ),10-Dioxo-7-(N-(2-pyridylmethyl)carbamoylmethyloxy)-1H-1,2,3-triazolo[4,5-c][1]benzazepine trifluoroacetate], in the assay with intraperitoneal cells, the IC50 came out at 2.8 nM. In addition, the inhibition in vivo at 20 mg/kg in assay [1] (setting [2]) worked out at 48%; in assay [1] (setting [3]), 35%.
The matching figures for `O=C(Nc1ccc2c(=O)c3[nH]nnc3c(=O)[nH]c2c1)c1ccc(OCCCCc2ccccc2)cc1` [Example 22, 4(5H),10-Dioxo-7-(4-phenylbutoxybenzoylamino)-1H-1,2,3-triazolo[4,5-c][1]benzazepine]: 8.1 nM, 40% and 41%.
The matching figures for `CC(=O)Nc1ccc2c(=O)c3[nH]nnc3c(=O)[nH]c2c1` [Example 21, 7-Acetylamino-4(5H),10-dioxo-1H-1,2,3-triazolo[4,5-c][1]benzazepine]: 4.6 nM, 43% and 26%.
Regarding `O=c1[nH]c2cc3c(cc2c(=O)c2[nH]nnc12)OCO3` [Example 26, 7,8-Methylenedioxy-4(5H),10-dioxo-1H-1,2,3-triazolo[4,5-c][1]benzazepine], the IC50 in the assay with intraperitoneal cells turned out to be 69 nM. Further, the inhibition in vivo at 20 mg/kg in assay [1] (setting [2]) is 43%; in assay [1] (setting [3]) it was 29%.
As to `COc1cc2[nH]c(=O)c3nn[nH]c3c(=O)c2cc1OC(C)C` [Example 23, 8-Isopropoxy-7-methoxy-4(5H),10-dioxo-1H-1,2,3-triazolo[4,5-c][1]benzazepine], in the assay with intraperitoneal cells, the IC50 amounted to 2.4 nM. Further, the inhibition in vivo at 20 mg/kg in assay [1] (setting [2]) is 71%; in assay [1] (setting [3]) it was 56%.
The matching figures for `O=C(CCc1ccc2c(=O)c3[nH]nnc3c(=O)[nH]c2c1)NCc1ccccn1` [Example 2, 4(5H),10-dioxo-7-(2-(N-(2-pyridyl)methyl)carbamoyl)ethyl-1H-1,2,3-triazolo[4,5-c][1]benzazepine]: 4.4 nM, 57% and 43%.
The matching figures for `CN(Cc1ccccn1)C(=O)CCc1ccc2c(=O)c3[nH]nnc3c(=O)[nH]c2c1` [Example 3, 4(5H),10-dioxo-7-(2-(N-methyl-N-(2-pyridyl)methyl)carbamoyl)ethyl-1H-1,2,3-triazolo[4,5-c][1]benzazepine]: 4.6 nM, 44% and 14%.
On to `O=C(/C=C/c1ccc2c(=O)c3[nH]nnc3c(=O)[nH]c2c1)Nc1ccccc1C(=O)O` [Example 1, 7-(2-(N-(2-Carboxyphenyl)carbamoyl)-(E)-ethenyl)-4(5H),10-dioxo-1H-1,2,3-triazolo[4,5-c][1]benzazepine], for which the IC50 in the assay on intraperitoneal cells was found to be 6 nM.
For `CCN(Cc1ccccn1)C(=O)CCc1ccc2c(=O)c3[nH]nnc3c(=O)[nH]c2c1` [Example 4, 7-(2-(N-Ethyl-N-(2-pyridyl)methyl)carbamoyl)ethyl-4(5H),10-dioxo-1H-1,2,3-triazolo[4,5-c][1]benzazepine], the IC50 in the assay on intraperitoneal cells is 13 nM. The inhibition in vivo at 20 mg/kg in assay [1] (setting [2]) was 48%; in assay [1] (setting [3]), 21%.
The matching figures for `O=C(CCc1ccc2c(=O)c3[nH]nnc3c(=O)[nH]c2c1)Nc1ccncc1` [Example 9, 7-(2-(N-(4-Pyridylamino))carbamoyl)ethyl-4(5H),10-dioxo-1H-1,2,3-triazolo[4,5-c][1]benzazepine]: 3.9 nM, 30% and 33%.
The matching figures for `CC(C)Oc1cc2[nH]c(=O)c3nn[nH]c3c(=O)c2cc1OC(C)C` [Example 25, 7,8-diisopropoxy-4(5H),10-dioxo-1H-1,2,3-triazolo[4,5-c][1]benzazepine]: 4.9 nM, 59% and 38%.
Turning to `O=c1[nH]c2cc(/C=C/c3ccc4ccccc4n3)ccc2c(=O)c2[nH]nnc12` [Example 33, 4(5H),10-Dioxo-7-(2-(2-quinolyl)-(E)-ethenyl)-1H-1,2,3-triazolo[4,5-c][1]benzazepine trifluoroacetate], in the assay on intraperitoneal cells, the IC50 was found to be 0.4 nM.
On to `O=c1[nH]c2cc(C=Cc3cccnc3)ccc2c(=O)c2[nH]nnc12` [Example 31, 4(5H),10-Dioxo-7-(2-(3-pyridyl)ethenyl)-1H-1,2,3-triazolo[4,5-c][1]benzazepine trifluoroacetate (E:Z=1:2)], for which the IC50 in the assay on intraperitoneal cells was determined as 2 nM.
With `COC(=O)c1cc2c(s1)CCN(C(=O)CCc1ccc3c(=O)c4[nH]nnc4c(=O)[nH]c3c1)C2` [Example 7, 7-(2-(2-Methoxycarbonyl-4,5,6,7-tetrahydrothieno[3,2-c]pyridin-5-yl)carbonylethyl)-4(5H),10-dioxo-1H-1,2,3-triazolo[4,5-c][1]benzazepine], in the assay on intraperitoneal cells, the IC50 is 12 nM. The inhibition in vivo at 20 mg/kg is 20% in assay [1] (setting [2]) and -3% in assay [1] (setting [3]).
Regarding `Cc1cc(C)c2[nH]c(=O)c3nn[nH]c3c(=O)c2c1` [Example 29, 6,8-Dimethyl-4(5H),10-dioxo-1H-1,2,3-triazolo[4,5-c][1]benzazepine], the IC50 in the assay on intraperitoneal cells was 31 nM.
For the molecule `O=c1[nH]c2cc(C(F)(F)F)ccc2c(=O)c2[nH]nnc12` [Example 34, 7-Trifluoromethyl-4(5H),10-dioxo-1H-1,2,3-triazolo[4,5-c][1]benzazepine], the IC50 in the assay with intraperitoneal cells was 5.3 nM. Also, the values for the inhibition in vivo at 20 mg/kg in assay [1] (setting [2]) and in assay [1] (setting [3]) were 66% and 59%, respectively.
The matching figures for `O=c1[nH]c2cc(OCCCN3CCOCC3)ccc2c(=O)c2[nH]nnc12` [Example 12, 7-(3-Morpholinopropoxy)-4(5H),10-dioxo-1H-1,2,3-triazolo[4,5-c][1]benzazepine trifluoroacetate]: 3.6 nM, 46% and 42%.
